According to patent US8163702B2, “Treatment of melanoma” (SciClone Pharmaceuticals, Inc., priority 2006, dated 2012):

System: murine B16 melanoma
Assay: Antitumor effect in murine B16 melanoma model, tumor size and tumor weight (Example 2)
Assay type: in vivo, C57BL/6 mice
Method: As per aseptic tissue culture procedures, one vial of B16 melanoma cells (supplied by Cell Culture Center of CAMS) was thawed and centrifuged at 1000 rpm, 20-25° C. for 5 minutes. The cell pellets were suspended in 0.1-0.5 mL normal saline (NS) and subcutaneously injected into the right axilla of each mouse (approximately 1×10^6 cells/mouse). When the tumor diameter was 1 cm approximately (measured by vernier caliper), the animals were euthanized with CO2 asphyxiation and the tumor was excised. Tumor cells were suspended in normal saline as previously described and the cell adaptation cycle was repeated once.
On Day 0, 1×10^6 B16 cells in a volume of 0.1 mL normal saline were subcutaneously injected into the right axillary area of the mouse. The day of tumor inoculation was defined as Day 0.
Dosing was initiated on Day 1.
Observations were recorded daily for mortality and moribundity. […] The tumors were excised, separated, and weighed.
Tumor volume was calculated using the following formula: Tumor Volume=Length×Width×Width/2 Tumor volume inhibition rate (IR) was calculated according to the formula: IR(TV)=(TVvehicle−TVdrug treated)/TVvehicle×100% TV is the tumor volume on the day of measurement.
The antitumor effect of the test article was also evaluated by tumor weight. The tumor weight of each mouse was recorded after euthanasia, and the inhibition rate of tumor weight was calculated according to the formula: IR(TW)=(Tumor weightvehicle−Tumor weightdrug treated)/Tumor weightvehicle×100%

[1] = Day 9, SCV-07 0.01 mg/kg/day sc
[2] = Day 9, mouse F1, SCV-07 0.1 mg/kg sc
[3] = Day 9, mouse F1, SCV-07 5.0 mg/kg sc
[4] = Day 9, mouse F2, SCV-07 0.01 mg/kg sc
[5] = Day 9, mouse F2, SCV-07 0.1 mg/kg sc
[6] = Day 9, mouse F2, SCV-07 1.0 mg/kg sc
[7] = Day 9, mouse F2, SCV-07 5.0 mg/kg sc
[8] = Day 9, mouse F3, SCV-07 0.1 mg/kg sc
[9] = Day 9, mouse F3, SCV-07 1.0 mg/kg sc
[10] = Day 9, mouse F4, SCV-07 0.01 mg/kg sc
[11] = Day 9, mouse F4, SCV-07 0.1 mg/kg sc
[12] = Day 9, mouse F4, SCV-07 1.0 mg/kg sc
[13] = Day 9, mouse F4, SCV-07 5.0 mg/kg sc
[14] = Day 9, mouse F5, SCV-07 0.01 mg/kg sc
[15] = Day 9, mouse F5, SCV-07 0.1 mg/kg sc
[16] = Day 9, mouse F5, SCV-07 1.0 mg/kg sc
[17] = Day 9, mouse F5, SCV-07 5.0 mg/kg sc
[18] = Day 9, mouse M1, SCV-07 0.01 mg/kg sc

Which “Tumor Volume (Mean ± SD)” value (Day 3, SCV-07 0.01 mg/kg/day sc, not measurable defined as 0) does the source give for `N[C@H](CCC(=O)N[C@@H](Cc1c[nH]c2ccccc12)C(=O)O)C(=O)O` [SCV-07, γ-D-glutamyl-L-tryptophan] here?
Its value is 0 cm^3.

What about the “Tumor Volume (Mean ± SD)” value (Day 3, SCV-07 0.1 mg/kg/day sc, not measurable defined as 0) of the same compound?
Its value is 0 cm^3.

What about the “Tumor Volume (Mean ± SD)” value (Day 3, SCV-07 1.0 mg/kg/day sc, not measurable defined as 0) of the same compound?
Its value is 0 cm^3.

What about the “Tumor Volume (Mean ± SD)” value (Day 3, SCV-07 5.0 mg/kg/day sc, not measurable defined as 0) of the same compound?
The value was 0 cm^3.

What about the “Tumor Volume (Mean ± SD)” value (Day 6, SCV-07 0.01 mg/kg/day sc, not measurable defined as 0) of the same compound?
Its value is 0 cm^3.

What about the “Tumor Volume (Mean ± SD)” value (Day 6, SCV-07 0.1 mg/kg/day sc, not measurable defined as 0) of the same compound?
The value was 0 cm^3.

And the “Tumor Volume (Mean ± SD)” value (Day 6, SCV-07 1.0 mg/kg/day sc, not measurable defined as 0)?
Its value is 0 cm^3.

What about the “Tumor Volume (Mean ± SD)” value (Day 6, SCV-07 5.0 mg/kg/day sc, not measurable defined as 0) of the same compound?
Its value is 0 cm^3.

What about the “IR (tumor volume inhibition rate)” value [1] of the same compound?
Its value is −4.3%.

And the “Tumor Volume (Mean ± SD)” value [1]?
Its value is 0.045 ± 0.042 cm^3.

And the “IR (tumor volume inhibition rate)” value (Day 9, SCV-07 0.1 mg/kg/day sc)?
Its value is 11.5%.

What about the “Tumor Volume (Mean ± SD)” value (Day 9, SCV-07 0.1 mg/kg/day sc) of the same compound?
Its value is 0.039 ± 0.038 cm^3.

What about the “IR (tumor volume inhibition rate)” value (Day 9, SCV-07 1.0 mg/kg/day sc) of the same compound?
The value was 19.7%.

What about the “Tumor Volume (Mean ± SD)” value (Day 9, SCV-07 1.0 mg/kg/day sc) of the same compound?
Its value is 0.035 ± 0.036 cm^3.

What about the “IR (tumor volume inhibition rate)” value (Day 9, SCV-07 5.0 mg/kg/day sc) of the same compound?
Its value is −11.0%.

And the “Tumor Volume (Mean ± SD)” value (Day 9, SCV-07 5.0 mg/kg/day sc)?
Its value is 0.048 ± 0.036 cm^3.

And the “Tumor measurements L” value [2]?
Its value is 0.5 cm.

What about the “Tumor measurements W” value [2] of the same compound?
Its value is 0.5 cm.

What about the Tumor volumes [2] of the same compound?
Its Tumor volumes is 0.06 cm^3.

And the “Tumor measurements L” value [3]?
The value was 0.5 cm.

What about the “Tumor measurements W” value [3] of the same compound?
Its value is 0.5 cm.

What about the Tumor volumes [3] of the same compound?
Its Tumor volumes is 0.06 cm^3.

What about the “Tumor measurements L” value [4] of the same compound?
Its value is 0.5 cm.

And the “Tumor measurements W” value [4]?
The value was 0.5 cm.

And the Tumor volumes [4]?
Its Tumor volumes is 0.06 cm^3.

And the “Tumor measurements L” value [5]?
Its value is 0.5 cm.

What about the “Tumor measurements W” value [5] of the same compound?
Its value is 0.5 cm.

What about the Tumor volumes [5] of the same compound?
Its Tumor volumes is 0.06 cm^3.

What about the “Tumor measurements L” value [6] of the same compound?
The value was 0.5 cm.

And the “Tumor measurements W” value [6]?
Its value is 0.5 cm.

And the Tumor volumes [6]?
Its Tumor volumes is 0.06 cm^3.

And the “Tumor measurements L” value [7]?
The value was 0.5 cm.

And the “Tumor measurements W” value [7]?
The value was 0.5 cm.

What about the Tumor volumes [7] of the same compound?
The Tumor volumes was 0.06 cm^3.

And the “Tumor measurements L” value [8]?
The value was 0.5 cm.

And the “Tumor measurements W” value [8]?
The value was 0.5 cm.

And the Tumor volumes [8]?
Its Tumor volumes is 0.06 cm^3.

What about the “Tumor measurements L” value [9] of the same compound?
Its value is 0.6 cm.

And the “Tumor measurements W” value [9]?
Its value is 0.6 cm.

What about the Tumor volumes [9] of the same compound?
Its Tumor volumes is 0.11 cm^3.

What about the “Tumor measurements L” value [10] of the same compound?
The value was 0.5 cm.

And the “Tumor measurements W” value [10]?
Its value is 0.5 cm.

What about the Tumor volumes [10] of the same compound?
Its Tumor volumes is 0.06 cm^3.

What about the “Tumor measurements L” value [11] of the same compound?
The value was 0.6 cm.

What about the “Tumor measurements W” value [11] of the same compound?
Its value is 0.6 cm.

And the Tumor volumes [11]?
The Tumor volumes was 0.11 cm^3.

And the “Tumor measurements L” value [12]?
Its value is 0.3 cm.

What about the “Tumor measurements W” value [12] of the same compound?
Its value is 0.3 cm.

What about the Tumor volumes [12] of the same compound?
The Tumor volumes was 0.01 cm^3.

What about the “Tumor measurements L” value [13] of the same compound?
Its value is 0.6 cm.

And the “Tumor measurements W” value [13]?
The value was 0.6 cm.

What about the Tumor volumes [13] of the same compound?
Its Tumor volumes is 0.11 cm^3.

What about the “Tumor measurements L” value [14] of the same compound?
The value was 0.6 cm.

And the “Tumor measurements W” value [14]?
The value was 0.6 cm.

And the Tumor volumes [14]?
The Tumor volumes was 0.11 cm^3.

What about the “Tumor measurements L” value [15] of the same compound?
Its value is 0 cm.

What about the “Tumor measurements W” value [15] of the same compound?
The value was 0 cm.

What about the Tumor volumes [15] of the same compound?
The Tumor volumes was 0.00 cm^3.

What about the “Tumor measurements L” value [16] of the same compound?
The value was 0.5 cm.

What about the “Tumor measurements W” value [16] of the same compound?
Its value is 0.5 cm.

What about the Tumor volumes [16] of the same compound?
The Tumor volumes was 0.06 cm^3.

What about the “Tumor measurements L” value [17] of the same compound?
The value was 0.5 cm.

What about the “Tumor measurements W” value [17] of the same compound?
The value was 0.5 cm.

What about the Tumor volumes [17] of the same compound?
The Tumor volumes was 0.06 cm^3.

And the “Tumor measurements L” value [18]?
Its value is 0.6 cm.

And the “Tumor measurements W” value [18]?
The value was 0.6 cm.

What about the Tumor volumes [18] of the same compound?
The Tumor volumes was 0.11 cm^3.

What about the “Tumor measurements L” value (Day 9, mouse M1, SCV-07 0.1 mg/kg sc) of the same compound?
Its value is 0.3 cm.
